# According to patent US9180155B2, “Compositions from Nigella sativa” (Bio Nexus, Ltd, priority 2013, dated 2015):
# Columns and labels:
# C2C12 myocytes = assay: Lipolysis (glycerol assay) in C2C12 myocytes; format: cell-based, murine; details: 5 or 2.5 μg/mL (FIG. 10)
# Protocol: Culture and treatment of 3T3-L1 adipocytes and C2C12 myocytes was as described in Example 5. Concentrations of the forskolin positive control and test materials are listed in FIG. 9 for adipocytes and FIG. 10 for myocytes. Free fatty acid release from 3T3-L1 adipocytes or C2C12 myocytes was quantified by measuring glycerol secretion into the medium. Glycerol was measured spectrophotometrically using the Free Glycerol Determination Kit ([…], Sigma) and an EL 312e Microplate BIO-KINETICS spectrophotometer (BioTek, Winooski, Vt.). Glycerol release from adipocytes and myocytes was expressed, respectively, as the percent increase in free fatty acid secretion (FIG. 9) and relative glycerol content (glycerol index FIG. 10) ±95% confidence intervals of eight observations for one of three representative experiments.
# Caco-2 monolayers = assay: LPS/H2O2-mediated loss of TEER in Caco-2 monolayers; format: cell-based, human; details: LPS/H2O2 control = 100, 3 h; μg TQ equivalents/mL: Thymoquinone 5.0, NS8 0.11, NS9 0.99, NS10 0.012, NSSpent#2 0.0005; NSSpent#1 5 μg/mL; listed as TQ
# Excerpt: The protocol for growing and differentiation the human Caco-2 colon andenocarcinoma cells was a modification of Protocol 3 as described by Yamashita et al. [[…]., and Furuyama, Y. 2002) New and better protocols for a short-term Caco-2 cell culture system, J Pharm Sci 91, 669-679]. Caco-2 Human Colon Adenocarcinoma cells were obtained from ATCC (Rockville, Md.; catalog #HTB-37) and maintained in a growth media: DMEM (Dulbecco's Modified Eagles Medium 1×) containing L-glutamine, glucose; Cellgro catalog #35-010CV with the following additions: (1) Penicillin (5,000 IU/mL)/Streptomycin (5,000 μg/mL) Cellgro catalog #30-001C1, (2) 10% FBS-Fetal Bovine Serum, Characterized; Hyclone catalog #SH30071.3, and (3) 1% NEAA-Non Essential Amino Acids; Cellgro catalog #25-025-CI; cells were cultured at 37 C in a humidified air-5% CO2 atmosphere in T175 flasks. BIOCOAT^R HTS Caco-2 Assay System kits (Becton Dickinson, N.J.; catalog #354801) consisting of 24-well fibrillar collagen coated inserts and feeder trays were used in all experiments and plated as follows. Media was removed from the T175 flasks and cells were washed with 10 mLs PBS (phosphate buffered saline 1× without Ca^++, without Mg^++; Cellgro #25-053-CI). […]
# [1] = tested on: LPS-stimulated macrophages; details: published results, El-Mahmoudy 2002; cited from earlier work
# [2] = tested on: adiponectin secretion in 3T3-L1 adipocytes; assay: Adiponectin secretion in t10-CLA-stimulated 3T3-L1 adipocytes; format: cell-based, murine; details: t10-CLA 50 μM control = 100; μg TQ equivalents/mL: Thymoquinone 5.0, NS8 0.11, NS9 0.99, NS10 0.012, NSSpent#2 0.0005; NSSpent#1 5 μg/mL; listed as TQ
# Protocol: The 3T3-L1 murine fibroblast model as used in Example 4 was used in this experiments. Test materials were added four hours prior to the addition of t10-CLA at a concentration of 50 μM. Following overnight incubation, the supernatant media were sampled for determination of IL-6 and adiponectin. The adiponectin secreted into the medium was quantified using the Mouse Adiponectin Quantikine® Immunoassay kit with no modifications (R&D Systems, Minneapolis, Minn.). […] Test materials and were assayed in duplicate, while solvent controls were replicated eight times. IL-6 and adiponectin secretion were represented relative to the IL-6 and adiponectin secretion of the t10-CLA only controls as the IL-6 and adiponectin index and differences among the means were analyzed by the student's t-test assuming a five percent probability of a type I error (Excel; Microsoft, Redmond, Wash.).
# [3] = DPPH free radical scavenging (antioxidant) assay; details: computed on basis of TQ content; inactive samples tested up to 1000 μg/mL
# Protocol: Antioxidant activity was determined utilizing 2,2-diphenyl-1-picrylhydrazyl (DPPH), which is a stable radical. The odd electron in the DPPH free radical gives a strong absorption maximum at 550 nm and is purple in color. The color turns from purple to yellow as the molar absorption of the DPPH radical at 550 nm is reduced when the odd electron of DPPH radical becomes paired with hydrogen from a free radical scavenging antioxidant to form the reduced DPPH-H. The test samples were dissolved in methanol containing 1% dimethyl sulfoxide and added to microtiter wells in 100 μL aliquots to 100 μL of a 100 μM DPPH solution in methanol. Readings were taken at 10, 30 and 60 minutes following the addition of the test material. Percent inhibition of the DPPH radical by the test material was computed relative to the inhibition of the DPPH radical by the vitamin E analog trolox and tabulated as μmol trolox/g test material.
compound,measurement,setting,value
"CC1=CC(=O)C(C(C)C)=CC1=O [Thymoquinone, thymoquinone]",free fatty acid release in myocytes,C2C12 myocytes,induced free fatty acid release
same,Relative Loss of TEER,Caco-2 monolayers,no effect
same,IC50 for NO inhibition in LPS-stimulated macrophages,[1],1.4 to 2.8 µg/mL
same,Adiponectin Index,[2],attenuated t10-CLA-stimulated decrease of adiponectin secretion
same,DPPH Reducing Activity,[3],45.2 μmol Trolox/g TQ
